Laboratory results: patent US9527856B2, “Oxindole compounds carrying a CO-bound spiro substituent and use thereof for treating vasopressin-related diseases” (AbbVie Deutschland GmbH & Co. KG, priority 2014, dated 2016)
Read-outs that look alike come from different tables or passages of the source.

Tests used:
[1] = target: T1, human vasopressin V1b receptor (Homo sapiens, UniProt P47901); details: read-out: Ki(h-V1b)*, CHO-K1 cell membranes, displacement of 3H-AVP
T1 sequence (P47901 1-424): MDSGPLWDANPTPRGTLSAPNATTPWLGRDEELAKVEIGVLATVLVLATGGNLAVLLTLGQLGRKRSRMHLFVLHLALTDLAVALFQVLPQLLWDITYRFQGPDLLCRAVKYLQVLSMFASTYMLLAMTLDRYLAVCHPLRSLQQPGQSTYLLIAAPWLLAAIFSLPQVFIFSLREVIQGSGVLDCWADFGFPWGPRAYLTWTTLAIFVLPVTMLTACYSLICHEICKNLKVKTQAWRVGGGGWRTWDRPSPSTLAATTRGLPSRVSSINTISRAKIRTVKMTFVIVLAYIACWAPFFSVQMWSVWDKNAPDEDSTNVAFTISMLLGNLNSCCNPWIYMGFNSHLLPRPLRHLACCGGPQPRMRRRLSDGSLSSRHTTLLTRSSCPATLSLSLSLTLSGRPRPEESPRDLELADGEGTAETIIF

[2] = target: human vasopressin V1a receptor (Homo sapiens, UniProt P37288); assay: Vasopressin V1a receptor binding assay; details: selectivity for human V1b over human V1a, quotient of binding constants
[3] = target: T1, human vasopressin V1b receptor; assay: biochemical; details: Ki(h-V1b)* [nM], CHO-K1 cell membranes, displacement of 3H-AVP

Sequence of human vasopressin V1a receptor (P37288 whole entry): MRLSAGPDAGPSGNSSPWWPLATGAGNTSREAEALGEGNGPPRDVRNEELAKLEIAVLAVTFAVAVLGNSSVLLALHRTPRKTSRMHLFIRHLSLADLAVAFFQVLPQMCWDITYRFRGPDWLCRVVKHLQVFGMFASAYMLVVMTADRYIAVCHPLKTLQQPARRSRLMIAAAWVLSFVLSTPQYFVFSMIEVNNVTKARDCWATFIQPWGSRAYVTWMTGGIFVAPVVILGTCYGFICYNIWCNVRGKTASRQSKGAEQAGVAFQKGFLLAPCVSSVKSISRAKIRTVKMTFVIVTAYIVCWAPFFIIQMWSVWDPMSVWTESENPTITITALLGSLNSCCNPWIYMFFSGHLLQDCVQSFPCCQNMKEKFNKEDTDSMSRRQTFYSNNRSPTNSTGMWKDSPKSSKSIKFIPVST

| Ki [1] | Ki(h-V1a)/Ki(h-V1b) [2] | Ki [3] | Structure (SMILES) |
| --- | --- | --- | --- |
| 1 to 10 nM | +++ (>75) | – | CCOc1ncccc1[C@]1(NC(=O)N2CC3(CN(CCN4CCOCC4)C3)C2)C(=O)N(S(=O)(=O)c2ccc(F)cc2OC)c2ccc(C#N)cc21 [Example 3, N-[(3S)-5-Cyano-3-(2-ethoxy-3-pyridyl)-1-(4-fluoro-2-methoxy-phenyl)sulfonyl-2-oxo-indolin-3-yl]-2-(2-morpholinoethyl)-2,6-diazaspiro[3.3]heptane-6-carboxamide] |
| – | +++ (>75) | 10 to 100 nM | CCOc1ncccc1[C@]1(NC(=O)N2CC3(CN(CCN4CCOCC4)C3)C2)C(=O)N(S(=O)(=O)c2ccccc2OC)c2ccc(C#N)cc21 [Example 14, N-[(3S)-5-Cyano-3-(2-ethoxy-3-pyridyl)-1-(2-methoxyphenyl)sulfonyl-2-oxo-indolin-3-yl]-2-(2-morpholinoethyl)-2,6-diazaspiro[3.3]heptane-6-carboxamide] |
| – | +++ (>75) | < 1 nM | CCOc1ncccc1[C@]1(NC(=O)N2CC3(CN(CCN4CCOCC4)C3)C2)C(=O)N(S(=O)(=O)c2ccc(OC)cc2F)c2ccc(C#N)cc21 [Example 18, N-[(3S)-5-Cyano-3-(2-ethoxy-3-pyridyl)-1-(2-fluoro-4-methoxy-phenyl)sulfonyl-2-oxo-indolin-3-yl]-2-(2-morpholinoethyl)-2,6-diazaspiro[3.3]heptane-6-carboxamide] |
| – | ++ (25-75) | 10 to 100 nM | CCOc1ncccc1[C@]1(NC(=O)N2CC3(C2)CN(C2CCN(C(C)C)CC2)C3)C(=O)N(S(=O)(=O)c2ccc(C)cc2)c2ccc(C#N)cc21 [Example 25, N-[(3S)-5-Cyano-3-(2-ethoxy-3-pyridyl)-2-oxo-1-(p-tolylsulfonyl)indolin-3-yl]-2-(1-isopropyl-4-piperidyl)-2,6-diazaspiro[3.3]heptane-6-carboxamide] |
| – | ++ (25-75) | 1 to 10 nM | CCOc1ncccc1C1(CC(=O)N2CC3(CN(CCN4CCOCC4)C3)C2)C(=O)N(S(=O)(=O)c2ccc(OC)cc2)c2ccc(C#N)cc21 (single isomer, unassigned) [Example 20A, 3-(2-Ethoxy-3-pyridyl)-1-(4-methoxyphenyl)sulfonyl-3-[2-[2-(2-morpholinoethyl)-2,6-diazaspiro[3.3]heptan-6-yl]-2-oxo-ethyl]-2-oxo-indoline-5-carbonitrile] |
| – | + (10-<25) | 1 to 10 nM | COc1ccc(S(=O)(=O)N2C(=O)[C@@](NC(=O)N3CC4(CN(CCN5CCOCC5)C4)C3)(c3cccnc3OC)c3cc(C#N)ccc32)cc1.O=C(O)C(F)(F)F [Example 12, N-[(3S)-5-Cyano-1-(4-methoxyphenyl)sulfonyl-3-(2-methoxy-3-pyridyl)-2-oxo-indolin-3-yl]-2-(2-morpholinoethyl)-2,6-diazaspiro[3.3]heptane-6-carboxamide; 2,2,2-trifluoroacetic acid] |
| – | +++ (>75) | 10 to 100 nM | CCOc1ncccc1[C@]1(NC(=O)N2CC3(C2)CN(C2CCN(C(C)C)CC2)C3)C(=O)N(S(=O)(=O)c2ccc(F)cc2)c2ccc(C#N)cc21 [Example 27, N-[(3S)-5-Cyano-3-(2-ethoxy-3-pyridyl)-1-(4-fluorophenyl)sulfonyl-2-oxo-indolin-3-yl]-2-(1-isopropyl-4-piperidyl)-2,6-diazaspiro[3.3]heptane-6-carboxamide] |
| – | +++ (>75) | 1 to 10 nM | CCOc1ncccc1C1(NC(=O)N2CC3(C2)CN(C2CCN(C(C)C)CC2)C3)C(=O)N(S(=O)(=O)c2ccc(OC)cc2OC)c2ccc(C#N)cc21 (racemic) [Example 22, (±)-N-[5-Cyano-1-(2,4-dimethoxyphenyl)sulfonyl-3-(2-ethoxy-3-pyridyl)-2-oxo-indolin-3-yl]-2-(1-isopropyl-4-piperidyl)-2,6-diazaspiro[3.3]heptane-6-carboxamide] |
| – | +++ (>75) | 10 to 100 nM | CCOc1ccccc1[C@]1(NC(=O)N2CC3(C2)CN(C2CCN(C(C)C)CC2)C3)C(=O)N(S(=O)(=O)c2ccc(C)cc2)c2ccc(C#N)cc21 [Example 41, N-[(3S)-5-Cyano-3-(2-ethoxyphenyl)-2-oxo-1-(p-tolylsulfonyl)indolin-3-yl]-2-(1-isopropyl-4-piperidyl)-2,6-diazaspiro[3.3]heptane-6-carboxamide] |
| – | +++ (>75) | 10 to 100 nM | CCOc1ncccc1[C@]1(NC(=O)N2CC3(C2)CN(C2CCN(C(C)C)CC2)C3)C(=O)N(S(=O)(=O)c2ccc(C#N)cc2)c2ccc(C#N)cc21 [Example 24, N-[(3S)-5-cyano-1-(4-cyanophenyl)sulfonyl-3-(2-ethoxy-3-pyridyl)-2-oxo-indolin-3-yl]-2-(1-isopropyl-4-piperidyl)-2,6-diazaspiro[3.3]heptane-6-carboxamide] |
| – | +++ (>75) | 10 to 100 nM | CCOc1ccccc1[C@]1(NC(=O)N2CC3(C2)CN(C2CCN(C(C)C)CC2)C3)C(=O)N(S(=O)(=O)c2ccc(C#N)cc2)c2ccc(C#N)cc21 [Example 42, N-[(3S)-5-Cyano-1-(4-cyanophenyl)sulfonyl-3-(2-ethoxyphenyl)-2-oxo-indolin-3-yl]-2-(1-isopropyl-4-piperidyl)-2,6-diazaspiro[3.3]heptane-6-carboxamide] |
